Tests used:
Rattus norvegicus [1] = assay: (§1) Inhibition of AChE in po dosed Charles Foster albino Rattus norvegicus (rat) assessed as hydrolysis of acetylthiocholine iodide per mg of protein in hippocampus administered po qd for 7 days measured 1 hr post last dose on day 7 by spectrophotometry (reference value: 47.50 +/-0.84 moles/min/mg protein); format: functional, organism-based
Rattus norvegicus [2] = assay: as §1, with “prefrontal cortex” for “hippocampus”, “administered” for “administered po”, “45.83 +/-0.94” for “47.50 +/-0.84”; format: functional, organism-based
Rattus norvegicus [3] = assay: (§2) Inhibition of AChE in Charles Foster albino Rattus norvegicus (rat) assessed as hydrolysis of acetylthiocholine iodide per mg of protein in hypothalamus at 10 mg/kg, po qd for 7 days measured 1 hr post last dose on day 7 by spectrophotometry (reference value: […]/mg protein); format: functional
Rattus norvegicus [4] = assay: Inhibition of AChE in Charles Foster albino Rattus norvegicus (rat) assessed as hydrolysis of acetylthiocholine iodide per mg of protein in hippocampus at 10 mg/kg, po qd for 7 days measured 1 hr post last dose on day 7 by spectrophotometry (reference value: […]/mg protein); format: functional
Rattus norvegicus [5] = assay: Inhibition of AChE in Charles Foster albino Rattus norvegicus (rat) assessed as hydrolysis of acetylthiocholine iodide per mg of protein in prefrontal cortex at 10 mg/kg, po qd for 7 days measured 1 hr post last dose on day 7 by spectrophotometry (reference value: […]/mg protein); format: functional
Rattus norvegicus [6] = assay: as §2, with “AChE in po dosed Charles Foster” for “AChE in Charles Foster”, “in hypothalamus administered qd for” for “in hypothalamus at 10 mg/kg, po qd for”; format: functional, organism-based
Rattus norvegicus [7] = assay: Inhibition of AChE in Charles Foster albino Rattus norvegicus (rat) assessed as hydrolysis of acetylthiocholine iodide per mg of protein in hypothalamus at 5 mg/kg, po qd for 7 days measured 1 hr post last dose on day 7 by spectrophotometry (reference value: […]/mg protein); format: functional
Rattus norvegicus [8] = assay: Inhibition of AChE in Charles Foster albino Rattus norvegicus (rat) assessed as hydrolysis of acetylthiocholine iodide per mg of protein in hippocampus at 5 mg/kg, po qd for 7 days measured 1 hr post last dose on day 7 by spectrophotometry (reference value: […]/mg protein); format: functional
Rattus norvegicus [9] = assay: Inhibition of AChE in Charles Foster albino Rattus norvegicus (rat) assessed as hydrolysis of acetylthiocholine iodide per mg of protein in prefrontal cortex at 5 mg/kg, po qd for 7 days measured 1 hr post last dose on day 7 by spectrophotometry (reference value: […]/mg protein); format: functional
Rattus norvegicus [10] = assay: Antiamnesic activity in po dosed scopolamine-induced amnesia Charles Foster albino Rattus norvegicus (rat) model assessed as transfer latency time administered once daily for 8 days measured 1 hr post last dose on day 8 by elevated plus maze test; format: functional, organism-based
Rattus norvegicus [11] = assay: Acute toxicity in Charles Foster albino Rattus norvegicus (rat) assessed as mortality at >35 mg/kg of body weight, po measured up to 24 hr; format: organism-based; conditions: in vivo
Rattus norvegicus [12] = assay: Antiamnesic activity in scopolamine-induced amnesia Charles Foster albino Rattus norvegicus (rat) model assessed as transfer latency time at 10 mg/kg, po qd for 8 days measured 1 hr post last dose on day 8 by elevated plus maze test; format: functional
Rattus norvegicus [13] = assay: Antiamnesic activity in scopolamine-induced amnesia Charles Foster albino Rattus norvegicus (rat) model assessed as transfer latency time at 5 mg/kg, po qd for 8 days measured 1 hr post last dose on day 8 by elevated plus maze test; format: functional
Rattus norvegicus [14] = assay: Cognition enhancing activity in Charles Foster albino Rattus norvegicus (rat) assessed as transfer latency time at 10 mg/kg, po qd for 8 days measured 1 hr post last dose on day 8 by elevated plus maze test; format: functional
Rattus norvegicus [15] = assay: Antiamnesic activity in scopolamine-induced amnesia Charles Foster albino Rattus norvegicus (rat) model assessed as transfer latency time at 10 mg/kg, po qd for 7 days measured 1 hr post last dose on day 7 by elevated plus maze test; format: functional
Rattus norvegicus [16] = assay: Antiamnesic activity in scopolamine-induced amnesia Charles Foster albino Rattus norvegicus (rat) model assessed as transfer latency time at 5 mg/kg, po qd for 7 days measured 1 hr post last dose on day 7 by elevated plus maze test; format: functional
Rattus norvegicus [17] = assay: Cognition enhancing activity in Charles Foster albino Rattus norvegicus (rat) assessed as transfer latency time at 10 mg/kg, po qd for 7 days measured 1 hr post last dose on day 7 by elevated plus maze test; format: functional
Rattus norvegicus [18] = assay: Cognition enhancing activity in Charles Foster albino Rattus norvegicus (rat) assessed as transfer latency time at 5 mg/kg, po qd for 7 days measured 1 hr post last dose on day 7 by elevated plus maze test; format: functional
Rattus norvegicus [19] = assay: Cognition enhancing activity in Charles Foster albino Rattus norvegicus (rat) assessed as transfer latency time at 5 mg/kg, po qd for 8 days measured 1 hr post last dose on day 8 by elevated plus maze test; format: functional
Rattus norvegicus [20] = assay: Antiamnesic activity in scopolamine-induced amnesia Charles Foster albino Rattus norvegicus (rat) model assessed as transfer latency time at 200 mg/kg, ip ip for 2 days measured 1 hr post last dose on day 2 by elevated plus maze test; format: functional; conditions: route intraperitoneal
Rattus norvegicus [21] = assay: Cognition enhancing activity in Charles Foster albino Rattus norvegicus (rat) assessed as transfer latency time at 200 mg/kg, ip for 2 days measured 1 hr post last dose on day 2 by elevated plus maze test; format: functional; conditions: route intraperitoneal
Rattus norvegicus [22] = assay: Antiamnesic activity in scopolamine-induced amnesia Charles Foster albino Rattus norvegicus (rat) model assessed as transfer latency time at 200 mg/kg, ip measured after 30 min by elevated plus maze test; format: functional; conditions: route intraperitoneal
Rattus norvegicus [23] = assay: Cognition enhancing activity in Charles Foster albino Rattus norvegicus (rat) at 200 mg/kg, ip measured 30 min post dose by elevated plus maze test; format: functional; conditions: route intraperitoneal

c1ccc(C(=Nc2ccncc2)c2ccccc2)cc1
inhibition (Rattus norvegicus [1]): Dose-dependent effect
inhibition (Rattus norvegicus [2]): Dose-dependent effect
Activity (Rattus norvegicus [3]): 29.67 nmol/min
Activity (Rattus norvegicus [4]): 37.5 nmol/min
Activity (Rattus norvegicus [5]): 32.83 nmol/min
inhibition (Rattus norvegicus [6]): Dose-dependent effect
Activity (Rattus norvegicus [7]): 34.67 nmol/min
Activity (Rattus norvegicus [8]): 42.17 nmol/min
Activity (Rattus norvegicus [9]): 37 nmol/min
Activity (Rattus norvegicus [10]): Dose-dependent effect
Activity (Rattus norvegicus [11]): Non-toxic
Time (Rattus norvegicus [12]): 41.17 s
Time (Rattus norvegicus [13]): 41.83 s
Time (Rattus norvegicus [14]): 40.17 s
Time (Rattus norvegicus [15]): 45.67 s
Time (Rattus norvegicus [16]): 46.83 s
Time (Rattus norvegicus [17]): 46.83 s
Time (Rattus norvegicus [18]): 49.17 s
Time (Rattus norvegicus [19]): 44 s

COc1ccc(/C=N\c2ccncc2)cc1
inhibition (Rattus norvegicus [1]): Dose-dependent effect
inhibition (Rattus norvegicus [2]): Dose-dependent effect
Activity (Rattus norvegicus [3]): 30.83 nmol/min
Activity (Rattus norvegicus [4]): 36.5 nmol/min
Activity (Rattus norvegicus [5]): 31 nmol/min
inhibition (Rattus norvegicus [6]): Dose-dependent effect
Activity (Rattus norvegicus [7]): 35.67 nmol/min
Activity (Rattus norvegicus [8]): 41.5 nmol/min
Activity (Rattus norvegicus [9]): 36 nmol/min
Activity (Rattus norvegicus [10]): Dose-dependent effect
Activity (Rattus norvegicus [11]): Non-toxic
Time (Rattus norvegicus [12]): 43.17 s
Time (Rattus norvegicus [13]): 50.83 s
Time (Rattus norvegicus [14]): 46.33 s
Time (Rattus norvegicus [15]): 48.67 s
Time (Rattus norvegicus [16]): 52 s
Time (Rattus norvegicus [17]): 52.67 s
Time (Rattus norvegicus [18]): 57.83 s
Time (Rattus norvegicus [19]): 49.5 s

Oc1ccccc1/C=N\c1ccncc1
inhibition (Rattus norvegicus [1]): Dose-dependent effect
inhibition (Rattus norvegicus [2]): Dose-dependent effect
Activity (Rattus norvegicus [3]): 30.5 nmol/min
Activity (Rattus norvegicus [4]): 36.83 nmol/min
Activity (Rattus norvegicus [5]): 33 nmol/min
inhibition (Rattus norvegicus [6]): Dose-dependent effect
Activity (Rattus norvegicus [7]): 34.33 nmol/min
Activity (Rattus norvegicus [8]): 41.83 nmol/min
Activity (Rattus norvegicus [9]): 37.5 nmol/min
Activity (Rattus norvegicus [10]): Dose-dependent effect
Activity (Rattus norvegicus [11]): Non-toxic
Time (Rattus norvegicus [12]): 42.5 s
Time (Rattus norvegicus [13]): 50.17 s
Time (Rattus norvegicus [14]): 42.5 s
Time (Rattus norvegicus [15]): 48.17 s
Time (Rattus norvegicus [16]): 53.5 s
Time (Rattus norvegicus [17]): 52.17 s
Time (Rattus norvegicus [18]): 59.83 s
Time (Rattus norvegicus [19]): 50.17 s

C(=N/c1ccncc1)/c1ccccc1
inhibition (Rattus norvegicus [1]): Dose-dependent effect
inhibition (Rattus norvegicus [2]): Dose-dependent effect
Activity (Rattus norvegicus [3]): 35.5 nmol/min
Activity (Rattus norvegicus [4]): 36.83 nmol/min
Activity (Rattus norvegicus [5]): 33.83 nmol/min
inhibition (Rattus norvegicus [6]): Dose-dependent effect
Activity (Rattus norvegicus [7]): 29.33 nmol/min
Activity (Rattus norvegicus [8]): 43.83 nmol/min
Activity (Rattus norvegicus [9]): 39 nmol/min
Activity (Rattus norvegicus [10]): Dose-dependent effect
Activity (Rattus norvegicus [11]): Non-toxic
Time (Rattus norvegicus [12]): 42.67 s
Time (Rattus norvegicus [13]): 51.5 s
Time (Rattus norvegicus [14]): 47.17 s
Time (Rattus norvegicus [15]): 48.83 s
Time (Rattus norvegicus [16]): 53.83 s
Time (Rattus norvegicus [17]): 52.5 s
Time (Rattus norvegicus [18]): 59.67 s
Time (Rattus norvegicus [19]): 51.83 s

C/C(=N/c1ccncc1)c1ccc(O)cc1
inhibition (Rattus norvegicus [1]): Dose-dependent effect
inhibition (Rattus norvegicus [2]): Dose-dependent effect
Activity (Rattus norvegicus [3]): 29.67 nmol/min
Activity (Rattus norvegicus [4]): 36.5 nmol/min
Activity (Rattus norvegicus [5]): 33 nmol/min
inhibition (Rattus norvegicus [6]): Dose-dependent effect
Activity (Rattus norvegicus [7]): 35.17 nmol/min
Activity (Rattus norvegicus [8]): 40.5 nmol/min
Activity (Rattus norvegicus [9]): 39.33 nmol/min
Activity (Rattus norvegicus [10]): Dose-dependent effect
Activity (Rattus norvegicus [11]): Non-toxic
Time (Rattus norvegicus [12]): 41.67 s
Time (Rattus norvegicus [13]): 50.67 s
Time (Rattus norvegicus [14]): 46.83 s
Time (Rattus norvegicus [15]): 47 s
Time (Rattus norvegicus [16]): 53.17 s
Time (Rattus norvegicus [17]): 50.83 s
Time (Rattus norvegicus [18]): 59.83 s
Time (Rattus norvegicus [19]): 56.17 s

NC(=O)CN1CCCC1=O [PIRACETAM]
Time (Rattus norvegicus [20]): 43.33 s
Time (Rattus norvegicus [21]): 45.67 s
Time (Rattus norvegicus [22]): 47 s
Time (Rattus norvegicus [23]): 49.5 s

Oc1ccc(/C=N\c2ccncc2)c(O)c1
inhibition (Rattus norvegicus [1]): Dose-dependent effect
inhibition (Rattus norvegicus [2]): Dose-dependent effect
Activity (Rattus norvegicus [3]): 30 nmol/min
Activity (Rattus norvegicus [4]): 34.83 nmol/min
Activity (Rattus norvegicus [5]): 30.5 nmol/min
inhibition (Rattus norvegicus [6]): Dose-dependent effect
Activity (Rattus norvegicus [7]): 34.5 nmol/min
Activity (Rattus norvegicus [8]): 42.83 nmol/min
Activity (Rattus norvegicus [9]): 41 nmol/min
Activity (Rattus norvegicus [10]): Dose-dependent effect
Activity (Rattus norvegicus [11]): Non-toxic
Time (Rattus norvegicus [12]): 43 s
Time (Rattus norvegicus [13]): 51.67 s
Time (Rattus norvegicus [14]): 48.67 s
Time (Rattus norvegicus [15]): 46.5 s
Time (Rattus norvegicus [16]): 51.67 s
Time (Rattus norvegicus [17]): 52.5 s
Time (Rattus norvegicus [18]): 60.33 s
Time (Rattus norvegicus [19]): 51.17 s

COc1ccc(/C=N\c2ccncc2)cc1OC
inhibition (Rattus norvegicus [1]): Dose-dependent effect
inhibition (Rattus norvegicus [2]): Dose-dependent effect
Activity (Rattus norvegicus [3]): 30.5 nmol/min
Activity (Rattus norvegicus [4]): 35.83 nmol/min
Activity (Rattus norvegicus [5]): 33.17 nmol/min
inhibition (Rattus norvegicus [6]): Dose-dependent effect
Activity (Rattus norvegicus [7]): 35.5 nmol/min
Activity (Rattus norvegicus [8]): 41.17 nmol/min
Activity (Rattus norvegicus [9]): 36.5 nmol/min
Activity (Rattus norvegicus [10]): Dose-dependent effect
Activity (Rattus norvegicus [11]): Non-toxic
Time (Rattus norvegicus [12]): 42.5 s
Time (Rattus norvegicus [13]): 50.67 s
Time (Rattus norvegicus [14]): 47.5 s
Time (Rattus norvegicus [15]): 48.5 s
Time (Rattus norvegicus [16]): 53.83 s
Time (Rattus norvegicus [17]): 53 s
Time (Rattus norvegicus [18]): 58 s
Time (Rattus norvegicus [19]): 50.33 s
